Source: patent US20250099625A1, “TANDEM MOLECULAR FLUORESCENCE REPORTERS FOR DETECTION OF TUMOR-INFILTRATING LEUKOCYTES” (Nanyang Technological University, priority 2021, published 2025)

System: 4T1 tumor
Assay: Therapeutic efficacy, 4T1 tumor-bearing mice
Experimental: (c) Tumor growth curves (n=6) and (d) overall survival curves (n=6) of 4T1 tumor-bearing mice. […] 95% confidence intervals were obtained by two-sided Student t-test analysis. […] Data are presented as mean±SD and analyzed by two-tailed Student's t-test.
FIG. 47 depicts the tumor control rate and body weights of mice. […] (c) Body weights of 4T1 tumor-bearing mice after intraperitoneal injection of saline, Oxa (6 mg/kg), aPD-L1 (10 mg/kg) and aPD-L1/Oxa at day 0, 2 and 4. […] Statistical significance was performed by two-tailed Student's t-test. ns: not significant, *P<0.05, **P<0.01, ***P<0.001, ****P<0.0001.
After tumor inoculation for one week, 4T1 tumor-bearing mice were administrated with aPD-L1 (10 mg/kg), Oxa (6 mg/kg) or the combination of aPD-L1 and Oxa (aPD-L1/Oxa) intraperitoneally every two days for three times.
The tumor control rate was calculated with the following formulas:
Vt0 means the volume of tumor on day 0, Vt means the volume at certain time, c means the control group (saline, without irradiation), and s means the group needed calculation.

## O=C1[O][Pt]2([NH][C@@H]3CCCC[C@H]3[NH]2)[O]C1=O [Oxa, oxaliplatin]
  survival rate: 50%
intraperitoneal, every two days for three times
  tumor control rate (TCR): 48%
